In patent US20060135522A1, “Tricyclic delta-opioid modulators” (priority 2004, published 2006):
Like-named read-outs stand apart in the source and are kept apart here.

Columns and labels:
mu opioid receptor = target: T1, mu opioid receptor (Rattus norvegicus, UniProt P33535); test: Rat Brain Mu Opioid Receptor Binding Assay
T1 construct: from tissue; host or cells: forebrain of male Wistar rats (particulate membrane preparation)
Method: Procedure: Male, Wistar rats (150-250 g, VAF, Charles River, Kingston, N.Y.) were killed by CO2, and their brains were removed and placed immediately in ice cold Tris HCl buffer (50 mM, pH 7.4). The forebrains were separated from the remainder of the brain by a coronal transection, beginning dorsally at the colliculi and passing ventrally through the midbrain-pontine junction. After dissection, the forebrains were homogenized in Tris buffer in a Teflon®-glass homogenizer. The homogenate was diluted to a concentration of 1 g of forebrain tissue per 80 mL Tris and centrifuged at 39,000×g for 10 min. The pellet was resuspended in the same volume of Tris buffer containing 5 mM MgCl2 with several brief pulses from a Polytron homogenizer. This particulate preparation was used for the mu opioid binding assays.
(§1) Analysis: The data from the scintillation counter was used to calculate either the % inhibition compared to control binding (when only a single concentration of test compound was evaluated) or a Ki value (when a range of concentrations was tested). Percent inhibition was calculated as: [(total dpm-test compound dpm)/(total dpm-nonspecific dpm)]*100. Kd and Ki values were calculated using GraphPad PRISM data analysis program.

delta opioid receptor = target: T2, delta opioid receptor (Rattus norvegicus, UniProt P33533); test: Rat Brain Delta Opioid Receptor Binding Assay
T2 construct: from tissue; host or cells: forebrain of male Wistar rats (particulate membrane preparation)
Method: Procedure: Male, Wistar rats (150-250 g, VAF, Charles River, Kingston, N.Y.) were killed by CO2, and their brains were removed and placed immediately in ice cold Tris HCl buffer (50 mM, pH 7.4). The forebrains were separated from the remainder of the brain by a coronal transection, beginning dorsally at the colliculi and passing ventrally through the midbrain-pontine junction. After dissection, the forebrains were homogenized in Tris buffer in a Teflon®-glass homogenizer. The homogenate was diluted to a concentration of 1 g of forebrain tissue per 80 mL Tris and centrifuged at 39,000×g for 10 min. The pellet was resuspended in the same volume of Tris buffer containing 5 mM MgCl2 with several brief pulses from a Polytron homogenizer. This particulate preparation was used for the delta opioid binding assays. Following incubation with the delta selective peptide ligand ˜4 nM [^3H]DPDPE or 0.15 nM [^3H]naltrindole at 25° C. for 2.5 h in a 96-well plate with total volume of […], the plate contents were filtered through Wallac filtermat B sheets on a Tomtec 96-well harvester. The filters were rinsed three times with 2 mL of 10 mM HEPES (pH 7.4), and dried in a 650 W microwave oven for 1.75 min twice. To each sample area 2×50 μL of Betaplate Scint scintillation fluid (LKB) was added and the radioactivity was quantified on a LKB (Wallac) 1205 BetaPlate liquid scintillation counter.
as §1

[1] = rat forebrain membranes, [3H]DAMGO, 25° C., 2.5 h, read-out: mu (Ki)
[2] = rat forebrain membranes, [3H]DPDPE or [3H]naltrindole, 25° C., 2.5 h, read-out: delta (Ki)

T1 sequence (P33535 whole entry): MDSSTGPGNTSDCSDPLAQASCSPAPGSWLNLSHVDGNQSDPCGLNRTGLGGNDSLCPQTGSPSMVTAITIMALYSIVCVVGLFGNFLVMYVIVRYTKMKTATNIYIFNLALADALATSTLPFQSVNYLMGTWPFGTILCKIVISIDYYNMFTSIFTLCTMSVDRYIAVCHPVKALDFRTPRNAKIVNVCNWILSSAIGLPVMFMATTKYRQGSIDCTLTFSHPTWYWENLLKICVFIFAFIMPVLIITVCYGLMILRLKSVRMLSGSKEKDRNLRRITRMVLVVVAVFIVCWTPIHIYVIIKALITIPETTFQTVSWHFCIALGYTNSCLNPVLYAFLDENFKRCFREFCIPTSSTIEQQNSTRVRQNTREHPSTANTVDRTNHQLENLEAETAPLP
T2 sequence (P33533 whole entry): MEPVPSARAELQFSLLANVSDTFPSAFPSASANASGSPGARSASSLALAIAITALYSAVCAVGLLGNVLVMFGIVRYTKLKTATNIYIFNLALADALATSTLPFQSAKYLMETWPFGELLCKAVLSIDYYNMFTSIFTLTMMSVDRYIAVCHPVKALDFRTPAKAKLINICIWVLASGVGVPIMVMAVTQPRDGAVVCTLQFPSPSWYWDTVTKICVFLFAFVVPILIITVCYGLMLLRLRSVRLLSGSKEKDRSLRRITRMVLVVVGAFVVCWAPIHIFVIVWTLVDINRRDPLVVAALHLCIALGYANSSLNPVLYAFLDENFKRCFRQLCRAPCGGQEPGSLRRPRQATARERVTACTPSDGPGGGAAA

SMILES	Ki (mu opioid receptor) [µM]	Ki (delta opioid receptor) [nM]	Ki (mu opioid receptor; [1]) [µM]	Ki (delta opioid receptor; [2]) [nM]
CCN(CC)C(=N)c1ccc2c(c1)Oc1ccccc1C2C1CCNCC1 (stereo not shown) [1p, N,N-Diethyl-9-piperidin-4-yl-9H-xanthene-3-carboxamidine]	> 10	51.1	–	–
CC(=O)Nc1ccccc1-c1ccc2c(c1)Oc1ccccc1C2C1CCNCC1 (stereo not shown) [2g, N-[2-(9-Piperidin-4-yl-9H-xanthen-3-yl)-phenyl]-acetamide]	–	–	> 10	1020
c1ccc2c(c1)Oc1cc(-c3ccncc3)ccc1C2C1CCNCC1 (stereo not shown) [2h, 4-(9-Piperidin-4-yl-9H-xanthen-3-yl)-pyridine]	–	–	> 10	4530
O=c1[nH]c(-c2ccc3c(c2)Oc2ccccc2C3C2CCNCC2)no1 (stereo not shown) [2m, 3-(9-Piperidin-4-yl-9H-xanthen-3-yl)-4H-[1,2,4]oxadiazol-5-one]	> 10	634	–	–
CC(=O)Nc1ccccc1-c1ccc2c(c1)Oc1ccccc1C2C1CCN(Cc2ccoc2)CC1 (stereo not shown) [3g, N-{2-[9-(1-Furan-3-ylmethyl-piperidin-4-yl)-9H-xanthen-3-yl]-phenyl}-acetamide]	–	100	4.44	–
c1ccc2c(c1)Oc1cc(-c3ccncc3)ccc1C2C1CCN(Cc2ccoc2)CC1 (stereo not shown) [3h, 4-[9-(1-Furan-3-ylmethyl-piperidin-4-yl)-9H-xanthen-3-yl]-pyridine]	4.26	791	–	–
Oc1cccc2c1Oc1cc(-c3cccnc3)ccc1C2C1CCNCC1 (stereo not shown) [3i, 9-Piperidin-4-yl-6-pyridin-3-yl-9H-xanthen-4-ol]	> 10	242	–	–
c1ccc2c(c1)Oc1cc(-c3nnn[nH]3)ccc1C2C1CCNCC1 (stereo not shown) [3l, 4-[3-(1H-Tetrazol-5-yl)-9H-xanthen-9-yl]-piperidine]	–	–	> 10	768
CC(=O)Nc1ccccc1-c1ccc2c(c1)Oc1c(O)cccc1C2C1CCNCC1 (stereo not shown) [4e, N-[2-(5-Hydroxy-9-piperidin-4-yl-9H-xanthen-3-yl)-phenyl]-acetamide]	–	38.1	0.289	–
c1cncc(-c2ccc3c(c2)Oc2ccccc2C3C2CCNCC2)c1 (stereo not shown) [4f, 3-(9-Piperidin-4-yl-9H-xanthen-3-yl)-pyridine]	–	–	1	161
CC(=O)Nc1ccccc1-c1ccc2c(c1)Oc1ccccc1C2C1CCN(Cc2ccccn2)CC1 (stereo not shown) [4g, N-{2-[9-(1-Pyridin-2-ylmethyl-piperidin-4-yl)-9H-xanthen-3-yl]-phenyl}-acetamide]	–	–	6.98	167
c1ccc(CN2CCC(C3c4ccccc4Oc4cc(-c5ccncc5)ccc43)CC2)nc1 (stereo not shown) [4h, 4-[9-(1-Pyridin-2-ylmethyl-piperidin-4-yl)-9H-xanthen-3-yl]-pyridine]	2.05	2640	–	–
c1ccc2c(c1)Oc1cc(-c3nnn[nH]3)ccc1C2C1CCN(Cc2ccoc2)CC1 (stereo not shown) [4l, 1-Furan-3-ylmethyl-4-[3-(1H-tetrazol-5-yl)-9H-xanthen-9-yl]-piperidine]	–	–	6.32	498
O=C(c1ccc2c(c1)Oc1ccccc1C2C1CCNCC1)N1CC[C@H](O)C1 (stereo partly drawn) [4n, (3-(S)-Hydroxy-pyrrolidin-1-yl)-(9-piperidin-4-yl-9H-xanthen-3-yl)-methanone]	–	–	> 10	434
CCNC(=O)c1ccc2c(c1)Oc1c(O)cccc1C2C1CCNCC1 (stereo not shown) [5d, 5-Hydroxy-9-piperidin-4-yl-9H-xanthene-3-carboxylic acid ethylamide]	–	–	0.876	209
c1cncc(-c2ccc3c(c2)Oc2ccccc2C3C2CCN(Cc3ccoc3)CC2)c1 (stereo not shown) [5f, 3-[9-(1-Furan-3-ylmethyl-piperidin-4-yl)-9H-xanthen-3-yl]-pyridine]	–	–	3.16	303
CC(=O)Nc1ccccc1-c1ccc2c(c1)Oc1ccccc1C2C1CCN(CCc2ccccc2)CC1 (stereo not shown) [5g, N-{2-[9-(1-Phenethyl-piperidin-4-yl)-9H-xanthen-3-yl]-phenyl}-acetamide]	–	–	0.995	4570
O=C(c1ccc2c(c1)Oc1ccccc1C2C1CCN(Cc2ccoc2)CC1)N1CC[C@H](O)C1 (stereo partly drawn) [5n, [9-(1-Furan-3-ylmethyl-piperidin-4-yl)-9H-xanthen-3-yl]-(3-(S)-hydroxy-pyrrolidin-1-yl)-methanone]	–	–	> 10	177

SMILES	Ki (mu opioid receptor) [µM]	Ki (delta opioid receptor) [nM]	Ki (mu opioid receptor; [1]) [µM]	Ki (delta opioid receptor; [2]) [nM]
CCN(CC)C(=O)c1ccc2c(c1)Oc1c(OC)cccc1C2C1CCNCC1 (stereo not shown) [6c, 5-Methoxy-9-piperidin-4-yl-9H-xanthene-3-carboxylic acid diethylamide]	–	–	> 10	277
C=CCN1CCC(C2c3ccccc3Oc3cc(-c4ccccc4NC(C)=O)ccc32)CC1 (stereo not shown) [6g, N-{2-[9-(1-Allyl-piperidin-4-yl)-9H-xanthen-3-yl]-phenyl}-acetamide]	–	–	9.63	1090
CCN(CC)C(=O)c1ccc2c(c1)Oc1c(Cl)cccc1C2C1CCNCC1 (stereo not shown) [6k, 5-Chloro-9-piperidin-4-yl-9H-xanthene-3-carboxylic acid diethylamide]	–	–	5.7	274
O=C(c1ccc2c(c1)Oc1ccccc1C2C1CCN(CCc2ccccc2)CC1)N1CC[C@H](O)C1 (stereo partly drawn) [6n, (3-(S)-Hydroxy-pyrrolidin-1-yl)-[9-(1-phenethyl-piperidin-4-yl)-9H-xanthen-3-yl]-methanone]	–	–	3.4	7050
COc1cccc2c1Oc1cc(-c3cccnc3)ccc1C2C1CCNCC1 (stereo not shown) [7b, 3-(5-Methoxy-9-piperidin-4-yl-9H-xanthen-3-yl)-pyridine]	–	–	> 10	318
c1ccc(CN2CCC(C3c4ccccc4Oc4cc(-c5cccnc5)ccc43)CC2)cc1 (stereo not shown) [7f, 3-[9-(1-Benzyl-piperidin-4-yl)-9H-xanthen-3-yl]-pyridine]	3.12	783	–	–
COc1cccc2c1Oc1cc(-c3ccncc3)ccc1C2C1CCNCC1 (stereo not shown) [8b, 4-(5-Methoxy-9-piperidin-4-yl-9H-xanthen-3-yl)-pyridine]	–	–	> 10	619
c1ccc(CCN2CCC(C3c4ccccc4Oc4cc(-c5cccnc5)ccc43)CC2)cc1 (stereo not shown) [8f, 3-[9-(1-Phenethyl-piperidin-4-yl)-9H-xanthen-3-yl]-pyridine]	–	–	0.907	2990
CCN(CC)C(=O)c1ccc2c(c1)Oc1ccccc1C2C1CCN(Cc2ccoc2)CC1 (stereo not shown) [9a, 9-(1-Furan-3-ylmethyl-piperidin-4-yl)-9H-xanthene-3-carboxylic acid diethylamide]	51	141	–	–
COc1cccc2c1Oc1cc(-c3ccccc3NC(C)=O)ccc1C2C1CCNCC1 (stereo not shown) [9b, N-[2-(5-Methoxy-9-piperidin-4-yl-9H-xanthen-3-yl)-phenyl]-acetamide]	–	–	4.45	761
CCN(CC)C(=O)c1ccc2c(c1)Oc1ccccc1C2C1CCN(Cc2ccccc2)CC1 (stereo not shown) [10a, 9-(1-Benzyl-piperidin-4-yl)-9H-xanthene-3-carboxylic acid diethylamide]	5.37	75	–	–
CCN(CC)C(=O)c1ccc2c(c1)Oc1ccccc1C2C1CCN(Cc2ccccn2)CC1 (stereo not shown) [11a, 9-(1-Pyridin-2-ylmethyl-piperidin-4-yl)-9H-xanthene-3-carboxylic acid diethylamide]	15.1	2700	–	–
CCN(CC)C(=O)c1ccc2c(c1)Oc1ccccc1C2C1CCN(CCc2ccccc2)CC1 (stereo not shown) [12a, 9-(1-Phenethyl-piperidin-4-yl)-9H-xanthene-3-carboxylic acid diethylamide]	0.976	3830	–	–
CCN(CC)C(=O)c1ccc2c(c1)Oc1ccccc1C2C1CCN(Cc2ncc[nH]2)CC1 (stereo not shown) [13a, 9-[1-(1H-Imidazol-2-ylmethyl)-piperidin-4-yl]-9H-xanthene-3-carboxylic acid diethylamide]	1.7	106	–	–
CCN(CC)C(=O)c1ccc2c(c1)Oc1ccccc1C2C1CCN(CC2CC2)CC1 (stereo not shown) [14a, 9-(1-Cyclopropylmethyl-piperidin-4-yl)-9H-xanthene-3-carboxylic acid diethylamide]	–	–	6.99	1080
CCN(CC)C(=O)c1ccc2c(c1)Oc1ccccc1C2C1CCN(Cc2cccs2)CC1 (stereo not shown) [15a, 9-(1-Thiophen-2-ylmethyl-piperidin-4-yl)-9H-xanthene-3-carboxylic acid diethylamide]	4.12	450	–	–
CCN(CC)C(=O)c1ccc2c(c1)Oc1ccccc1C2C1CCN(C)CC1 (stereo not shown) [16a, 9-(1-Methyl-piperidin-4-yl)-9H-xanthene-3-carboxylic acid diethylamide]	35.2	1140	–	–
